Results from PMC11414077, “Novel thiazole-based cyanoacrylamide derivatives: DNA cleavage, DNA/BSA binding properties and their anticancer behaviour against colon and breast cancer cells” (BMC Chemistry, 2024).

What was measured:
[1] = system: CT-DNA-EtBr; test: Ethidium bromide quenching (displacement) assay; type: binding, calf; settings: for kq / KSV: CT-DNA-EtBr; for kq: τ0 10^−8 s; for reduction in fluorescence intensity: EtBr 20 µM, CT-DNA 100 µM, 3b 0–160 µM, 3c 0–80 µM; for KSV: Stern–Volmer, room temperature
Experimental: EtBr is a conventional intercalator whose fluorescence intensity intensifies in response to CT-DNA interaction. Solution of CT-DNA-EtBr with final concentrations of EtBr (20 µM) and CT-DNA (100 µM) in Tris–HCl buffer solution (pH = 7.1) was prepared, then compounds were solubilized in DMSO, added to the prepared solution to attain a range of concentration (0–160 µM) and (0–80 µM) for 3b and 3c, respectively. Then, the mixtures were incubated 3 min after each addition and the emission spectra (540–710 nm) were recorded using an excitation wavelength of 520 nm.
The interaction mode between compound and CT-DNA can be discriminated through fluorescence spectroscopy with the EtBr–CT-DNA system. EtBr is a classic indicator of intercalation where an intense fluorescence signal is emitted from the EtBr-CT-DNA system through intercalation of EtBr between adjacent DNA base pairs with no obvious signal for unaccompanied EtBr. […] The Stern–Volmer equation was used for the study of the effect of quenchers on the CT-DNA-EtBr system. F0/F= 1+KsvQ= 1+kqτ0[Q] where F0 and F are fluorescence intensities in the absence and presence of the compound used for quenching, respectively; KSV is a linear Stern–Volmer quenching constant; [Q] is the concentration of the quenching compound and τ0 is the fluorescence lifetime of the fluorophore (10^−8 s) in absence of the compound responsible for quenching. KSV for 3b and 3c is computed from the linear regression plot of F0/F against [Q]. Also, the binding constant (Kb) and the number of binding sites (n) were determined by the Scatchard method.
log((F0-F)/F)=logKb+nlog[Q]
Kb has been assigned as the intercept and n as the slope in the linear plotting of log((F0–F)/F) versus log[Q]. The detailed results for 3b and 3c were computed and depicted in Table 1.

[2] = target: T1, BSA (Bos taurus, UniProt P02769); test: BSA UV-Visible absorption spectrophotometric titration; type: binding, bovine; settings: at 277 nm, BSA 15 μM, compound 0–40 μM
T1 construct: purchased BioBasic Inc. (Canada)
T1 sequence (P02769 25-607): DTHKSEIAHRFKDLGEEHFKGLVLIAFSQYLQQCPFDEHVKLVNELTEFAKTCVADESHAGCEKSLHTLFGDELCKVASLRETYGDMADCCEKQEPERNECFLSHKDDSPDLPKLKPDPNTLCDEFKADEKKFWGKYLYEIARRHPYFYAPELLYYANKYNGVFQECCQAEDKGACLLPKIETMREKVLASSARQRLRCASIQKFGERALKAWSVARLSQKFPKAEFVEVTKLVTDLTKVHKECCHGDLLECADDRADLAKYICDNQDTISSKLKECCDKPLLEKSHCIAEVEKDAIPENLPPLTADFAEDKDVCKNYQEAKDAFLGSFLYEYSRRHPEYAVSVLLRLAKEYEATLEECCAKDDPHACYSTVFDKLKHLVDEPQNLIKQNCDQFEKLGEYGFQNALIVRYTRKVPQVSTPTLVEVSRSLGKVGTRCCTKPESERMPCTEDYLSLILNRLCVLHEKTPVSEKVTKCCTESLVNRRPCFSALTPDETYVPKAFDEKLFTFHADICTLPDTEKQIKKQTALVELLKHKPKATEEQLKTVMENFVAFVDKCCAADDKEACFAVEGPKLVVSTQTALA
Experimental: BSA was dissolved in Tris/NaCl buffer (pH 7.1) to prepare the BSA stock solution, which was then kept at 4°C and utilized within a week after preparation. The concentration was evaluated by applying the equation C=A280nm/ε×b where C is the concentration of protein solution, A is the absorbance at wavelength 280 nm, b is the path length and ε is molar extinction coefficient of protein that equals 44,300 M^−1 cm^−1.
The interaction was evaluated through dilution of BSA to 15 μM in Tris/NaCl (pH 7.1) during the spectrophotometric titration. After that, the compounds dissolved in DMSO were added with a range of increasing concentration (0–40 μM), where the final DMSO percentage is 5%. UV–Vis absorption spectrum measurement for each concentration was assessed by Shimadzu UV-3101 PC NIR spectrophotometer after 3 min of each addition. The Kb for compounds 3b and 3c was calculated using equation [54]: 1/Aobs-A0=1/Ac-A0+1/KbAc-A0[compound] where A0, Aobs and Ac are absorbance of solution in the absence, various concentrations, and saturation of the compound at the characteristic peak, respectively. Where Kb is estimated from the plot of 1/Aobs-A0 versus 1/[Drug] .

[3] = system: CT-DNA; test: CT-DNA UV-Visible absorption spectrophotometric titration; type: binding, calf; settings: compound 25 μM, CT-DNA 0–60 μM; peak 423 nm (3b), 359 nm (3c)
Experimental: CT-DNA stock solution was prepared by dissolving CT-DNA in Tris/NaCl buffer (pH 7.1). Then, it was stored at 4°C and was manipulated within 4 days of preparation. The concentration was estimated by applying the equation C=A260nm/ε×b where C is the concentration of DNA solution, A is the absorbance at wavelength 260 nm, b is the path length and ε is the molar extinction coefficient of DNA that equals 6600 M^−1 cm^−1. The purity also was calculated using the absorbance ratio at wavelength 260 and 280 respectively, which was 1.8 indicating free DNA from protein contamination. Stock solutions of compounds 3b and 3c were prepared by dissolving in DMSO.
The interaction between the selected compounds (3b and 3c) and CT-DNA was assessed through the spectrophotometric titration method. In brief, a fixed concentration of compounds (25 μM) was mixed with an accumulative addition of CT-DNA (0–60 μM) at room temperature with a constant DMSO percentage of 5%. After 5 min from each addition, the UV–Vis absorption spectrum (250–650 nm) was recorded. The hyper/hypochromic percentage change at the characteristic peak of 3b and 3c was assessed using the formula: H%=Afree-Abound/Abound×100 . […] Standard Gibbs free energy (ΔG°) was calculated using the equation ΔG° = − RTlnKb (where T is the temperature, 298 K; R is the universal gas constant, 8.314 J K^−1 mol^−1).

[4] = system: MDA-MB-231 cells; test: MTT cell viability assay, MDA-MB-231; type: cell-based; settings: Homo sapiens; MDA-MB-231, dark conditions
Experimental: (§1) The cytotoxicity of 3b and 3c against MDA-MB-231 and HCT116 cell lines, with and without illumination, was assessed using the MTT test. Two human cancer cell lines, including MDA-MB-231 and HCT116 cell lines, were purchased from the National Research Centre, Dokki, Cairo, Egypt. Briefly, 96-well plates were seeded with cells (5 × 10^3 cells/well) and left overnight. The compounds dissolved in DMSO were then applied to the cells following the serial dilution procedure in the range of 0–100 µM. The cells were then incubated for an additional 20 h. Subsequently, the cells were exposed to UV light for 20 min at a distance of 10 cm. To study the effects of the illumination, a control plate was created under the same circumstances but without illumination. The two plates were incubated for a further 20 h. After that, PBS was used to wash the cells and MTT solution (0.5 mg/ml) was added. To dissolve the generated formazan crystals, the solution was replaced with 100 µl of DMSO per well after 4 h of incubation. An ELISA reader operating at 492 nm was used to measure the absorbance after 15 min of plate shaking. By relating the absorbance of treated and negative control cells, the relative cell viability was calculated. GraphPad Prism software was used to calculate the half inhibitory concentration (IC50). Doxorubicin (0–100 μM) was utilized as a positive cytotoxicity control in the usual dark environment, while the vehicle (DMSO, 0.1%) was used as a negative control.

[5] = target: T1, BSA; test: Tryptophan quenching assay with BSA; type: binding, bovine; settings: for kq / n (binding site numbers) / Kb: BSA; for n (binding site numbers) / Kb: Scatchard method; for Kb / KSV: room temperature; for KSV: Stern–Volmer, BSA 15 µM, λex 289 nm
Experimental: BSA (15 µM) solution was prepared in Tris/HCl buffer solution (pH = 7.1) and mixed with serial concentrations of compounds 3b and 3c (0–40 µM), achieving 5% final concentration of DMSO. Following 3 min incubation after each addition, fluorescence quenching spectra were recorded from 300 to 450 nm using a spectrofluorometer with an excitation wavelength of 289 nm.
Fluorescence investigations could be used to conduct a specified analysis of whether synthetic molecules bind to biomolecules as BSA. It is widely perceived that predominantly tryptophan (Trp) is responsible for the inherited fluorescence among the other two amino acids [tyrosine (Tyr) and phenylalanine (Phe)] in the BSA [88]. The tryptophan emission spectrum is frequently altered because of protein conformational variation, subunit interactions, substrate binding, or denaturation. Reduced fluorescence emission intensity is observed for 3b and 3c, which may be due to disrupted BSA structure altering the tryptophan microenvironments. Moreover, the internalization of fluorophore residues into the protein's hydrophobic core is due to protein folding or related to the hydrophobic amino acid residues around Trp, such as Leu, Tyr, and phe. […] Also, a linear plot of F0/F against the concentration of 3b and 3c was used for computing the values of KSV (9.0 × 10^4 and 9.9 × 10^4 M^−1) and kq (9.0 × 10^12 and 9.9 × 10^12 M^−1 s^−1) for the titled compounds (3b and 3c, respectively). […] The negative values of ΔG also supported the UV–Vis results of free energy changes and implied the spontaneity of 3b/3c–BSA binding, where the interaction parameters were illustrated in Table 2.

[6] = system: HCT116 cells; test: MTT cell viability assay, HCT116; type: cell-based; settings: Homo sapiens, HCT-116; HCT116, absence of illumination (dark)
Experimental: as §1

SMILES | kq [1] [M⁻¹ s⁻¹] | reduction in fluorescence intensity [1] | KSV [1] [M⁻¹] | hyperchromicity [2] | hypochromism [3] | IC50 [4] [µM] | melting point [°C] | kq [5] [M⁻¹ s⁻¹] | n (binding site numbers) [5] | Kb [5] [M⁻¹] | KSV [5] [M⁻¹] | IC50 [6] [µM]
N#CC(=Cc1cn(-c2ccccc2)nc1-c1cccs1)C(=O)Nc1nccs1 [Compound 3b, 2-Cyano-3-(1-phenyl-3-(thiophen-2-yl)-1H-pyrazol-4-yl)-N-(thiazol-2-yl)acrylamide] | 2.9e+11 | ~ 33.3% | 2900 | ~ 52.2% | ~ 14% | 91 | 252 to 256 | 9e+12 | 1.3 | 30 | 90000 | 72
N#CC(=Cc1cn(-c2ccccc2)nc1-c1cccnc1)C(=O)Nc1nccs1 [Compound 3c, 2-Cyano-3-(1-phenyl-3-(pyridin-3-yl)-1H-pyrazol-4-yl)-N-(thiazol-2-yl)acrylamide] | 5.6e+11 | ~ 30.7% | 5600 | ~ 48.2% | ~ 40% | 64 | 250 to 252 | 9.9e+12 | 1.3 | 34 | 99000 | 82
Cc1ccc(-c2nn(-c3ccccc3)cc2C=C(C#N)C(=O)Nc2nccs2)cc1 [Compound 3d, 2-Cyano-3-(1-phenyl-3-(p-tolyl)-1H-pyrazol-4-yl)-N-(thiazol-2-yl)acrylamide] | – | – | – | – | – | – | 255 to 257 | – | – | – | – | –
N#CC(=Cc1cn(-c2ccccc2)nc1-c1ccc(Cl)cc1)C(=O)Nc1nccs1 [Compound 3f, 3-(3-(4-Chlorophenyl)-1-phenyl-1H-pyrazol-4-yl)-2-cyano-N-(thiazol-2-yl)acrylamide] | – | – | – | – | – | – | 270 to 272 | – | – | – | – | –
COc1cccc2c1C(=O)c1c(O)c3c(c(O)c1C2=O)C[C@@](O)(C(=O)CO)C[C@@H]3O[C@H]1C[C@H](N)[C@H](O)[C@H](C)O1 [doxorubicin, reference compound] | – | – | – | – | – | 64.8 | – | – | – | – | – | 40
